For 14 compounds, T/C results are on record in PubChem BioAssay AID248 (DTP/NCI, 2004).

The structures appear in SMILES notation. Where “and” joins values, the source holds several entries; their conditions need not be identical. Identical values can stand only once. Toxic doses and inconclusive results are not listed.

The experiment relates to L1210 leukemia ip in BDF1 mice, survival T/C. The experiment is described as follows: NCI In Vivo Anticancer Drug Screen. Data for tumor model L1210 Leukemia (intraperitoneal) in B6D2F1 (BDF1) mice. Particulars: endpoint: mean survival time, higher = longer survival. In short, it runs like this: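 Transplantable tumor model; survival measured in treated vs vehicle control mice. Value = treated/control.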

The mark [1] stands for this setting: dose: 100.0 mg/kg/injection, schedule: Q01DX009 (ip), vehicle: Klucel (hydroxypropylcellulose) (HPC).
[2] abbreviates: dose: 200.0 mg/kg/injection, schedule: Q04DX003 (ip), vehicle: Klucel (hydroxypropylcellulose) (HPC).
The mark [3] stands for this setting: dose: 100.0 mg/kg/injection, schedule: Q01DX009 (ip), vehicle: saline with Tween-80.
Setting [4] is: dose: 200.0 mg/kg/injection, schedule: Q01DX009 (ip), vehicle: saline with Tween-80.
Where [5] appears, read: dose: 400.0 mg/kg/injection, schedule: Q01DX009 (ip), vehicle: saline with Tween-80.
[6] abbreviates: dose: 100.0 mg/kg/injection, schedule: Q04DX003 (ip), vehicle: Klucel (hydroxypropylcellulose) (HPC).
[7] abbreviates: dose: 400.0 mg/kg/injection, schedule: Q04DX003 (ip), vehicle: Klucel (hydroxypropylcellulose) (HPC).
Where [8] appears, read: dose: 200.0 mg/kg/injection, schedule: Q04DX003 (ip), vehicle: saline.

For `c1ccc(C(C(=Nc2ccc(Cc3ccc(N=C(C(c4ccccc4)c4ccccc4)N4CC4)cc3)cc2)N2CC2)c2ccccc2)cc1`, the T/C reads like this: (dose: 70.0 mg/kg/injection, schedule: Q01DX009 (ip), vehicle: saline) 103 % of control; (dose: 140.0 mg/kg/injection, schedule: Q01DX009 (ip), vehicle: saline) 104 % of control; (dose: 280.0 mg/kg/injection, schedule: Q01DX009 (ip), vehicle: saline) 93 % of control.
Turning to `O=C(NCCCl)Nc1ccc2c3c(cccc13)CC2`, the T/C reads like this: under setting [1], 87 % of control; under setting [2], 95 % of control.
For `COc1ccc(C(C)(C#N)Nc2ccccc2)cc1` (configuration not stated), the T/C by setting is: (dose: 100.0 mg/kg/injection, schedule: Q04DX003 (ip), vehicle: saline with Tween-80) 98 % of control; (dose: 200.0 mg/kg/injection, schedule: Q04DX003 (ip), vehicle: saline with Tween-80) 96 % of control.
`COc1ccc(CSSP(=S)(OC)c2ccc(OC)cc2)cc1` (configuration not stated): the T/C by setting is: under setting [3], 91 % of control; under setting [4], 95 % of control; under setting [5], 88 % of control.
Turning to `CC(C)CCCC(C)C1CCC2C3CC=C4CC(OC(=O)Nc5ccc(S(=O)(=O)c6ccc(F)cc6)cc5)CCC4(C)C3CCC12C` (configuration not stated), the T/C (dose: 100.0 mg/kg/injection, schedule: Q01DX001 (sc), vehicle: steriod suspending solution) is 89 % of control; the T/C (dose: 200.0 mg/kg/injection, schedule: Q01DX001 (sc), vehicle: steriod suspending solution) was 92 % of control; the T/C (dose: 400.0 mg/kg/injection, schedule: Q01DX001 (sc), vehicle: steriod suspending solution) is 100 % of control.
`Cc1c([N+](=O)[O-])ccc2ccccc12`: the T/C is, setting by setting: (dose: 100.0 mg/kg/injection, schedule: Q01DX001 (ip), vehicle: other) 103 % of control; under setting [6], 108 % of control; (dose: 200.0 mg/kg/injection, schedule: Q01DX001 (ip), vehicle: other) 98 % of control; under setting [2], 101 % of control; (dose: 400.0 mg/kg/injection, schedule: Q01DX001 (ip), vehicle: other) 103 % of control; under setting [7], 100 % of control.
Consider `Cc1cn(C2CC(O)C(CO)O2)c(=O)n(Cc2ccccc2)c1=O` (configuration not stated), for which the T/C was 108 % of control (dose: 50.0 mg/kg/injection, schedule: Q01DX001 (ip), vehicle: saline); 108 % of control (dose: 100.0 mg/kg/injection, schedule: Q01DX001 (ip), vehicle: saline); 98 % of control (dose: 200.0 mg/kg/injection, schedule: Q01DX001 (ip), vehicle: saline); 108 % of control (dose: 400.0 mg/kg/injection, schedule: Q01DX001 (ip), vehicle: saline).
Turning to `O=C(Nc1ccccc1)Oc1ccc(Cl)cc1`, the T/C runs as follows: under setting [1], 97 % of control; under setting [6], 107 % of control; (dose: 200.0 mg/kg/injection, schedule: Q01DX009 (ip), vehicle: Klucel (hydroxypropylcellulose) (HPC)) 102 % of control; under setting [2], 96 % of control; (dose: 400.0 mg/kg/injection, schedule: Q01DX009 (ip), vehicle: Klucel (hydroxypropylcellulose) (HPC)) 103 % of control; under setting [7], 113 % of control.
`NC(=O)NNC(N)=O`: the T/C is 91 % of control (dose: 50.0 mg/kg/injection, schedule: Q01DX009 (ip), vehicle: saline); 98 % of control (dose: 100.0 mg/kg/injection, schedule: Q01DX009 (ip), vehicle: saline); 102 % of control (dose: 100.0 mg/kg/injection, schedule: Q04DX003 (ip), vehicle: saline); 101 % of control under setting [8].
As for `C[C@]12CCC(=O)C[C@H]1CC[C@@H]1[C@@H]2CC[C@@]2(C)[C@H]1CC[C@]2(C)O`, the T/C runs as follows: (dose: 50.0 mg/kg/injection, schedule: Q01DX Z (sc), vehicle: steriod suspending solution) 98 % of control; (dose: 100.0 mg/kg/injection, schedule: Q01DX Z (sc), vehicle: steriod suspending solution) 98 % of control; (dose: 200.0 mg/kg/injection, schedule: Q01DX Z (sc), vehicle: steriod suspending solution) 101 % of control; (dose: 400.0 mg/kg/injection, schedule: Q01DX Z (sc), vehicle: steriod suspending solution) 98 % of control.
On to `Clc1ccc(/C(=C(\Br)c2ccccc2)c2ccccc2)cc1`, for which the T/C runs as follows: under setting [3], 96 % of control and 98 % of control; under setting [4], 95 % of control and 101 % of control; under setting [5], 96 % of control and 102 % of control.
In the case of `CS(=O)(=O)OCC(=O)NCCNC(=O)COS(C)(=O)=O`, the T/C reads like this: (dose: 25.0 mg/kg/injection, schedule: Q01DX Z (ip), vehicle: saline) 109 % of control; (dose: 33.0 mg/kg/injection, schedule: Q01DX Z (ip), vehicle: carboxymethylcellulose (CMC)) 113 % of control and 120 % of control; (dose: 47.0 mg/kg/injection, schedule: Q01DX Z (ip), vehicle: carboxymethylcellulose (CMC)) 122 % of control; (dose: 50.0 mg/kg/injection, schedule: Q01DX015 (ip), vehicle: saline) 108 % of control and 122 % of control; (dose: 50.0 mg/kg/injection, schedule: Q01DX Z (ip), vehicle: carboxymethylcellulose (CMC)) 104 % of control; (dose: 50.0 mg/kg/injection, schedule: Q01DX Z (ip), vehicle: saline) 109 % of control. Besides, the T/C (dose: 50.0 mg/kg/injection, schedule: Q04DX003 (ip), vehicle: carboxymethylcellulose (CMC)) is 111 % of control; the T/C (dose: 66.0 mg/kg/injection, schedule: Q01DX Z (ip), vehicle: carboxymethylcellulose (CMC)) was 106 % of control; the T/C (dose: 75.0 mg/kg/injection, schedule: Q01DX Z (ip), vehicle: carboxymethylcellulose (CMC)) was 120 % of control; the T/C (dose: 100.0 mg/kg/injection, schedule: Q01DX015 (ip), vehicle: saline) is 114 % of control; the T/C (dose: 100.0 mg/kg/injection, schedule: Q01DX Z (ip), vehicle: saline) is 115 % of control; the T/C (dose: 100.0 mg/kg/injection, schedule: Q04DX003 (ip), vehicle: carboxymethylcellulose (CMC)) is 110 % of control. Moreover, the T/C runs as follows: (dose: 105.0 mg/kg/injection, schedule: Q01DX Z (ip), vehicle: carboxymethylcellulose (CMC)) 154 % of control; (dose: 115.0 mg/kg/injection, schedule: Q01DX Z (ip), vehicle: carboxymethylcellulose (CMC)) 120 % of control; (dose: 175.0 mg/kg/injection, schedule: Q01DX Z (ip), vehicle: carboxymethylcellulose (CMC)) 118 % of control; (dose: 180.0 mg/kg/injection, schedule: Q01DX009 (ip), vehicle: saline) 168 % of control; (dose: 200.0 mg/kg/injection, schedule: Q04DX003 (ip), vehicle: carboxymethylcellulose (CMC)) 119 % of control; under setting [8], 111 % of control. Also, the T/C is 92 % of control (dose: 225.0 mg/kg/injection, schedule: Q01DX Z (ip), vehicle: carboxymethylcellulose (CMC)); 161 % of control and 169 % of control (dose: 256.0 mg/kg/injection, schedule: Q01DX009 (ip), vehicle: saline); 162 % of control (dose: 400.0 mg/kg/injection, schedule: Q01DX015 (ip), vehicle: saline); 102 % of control (dose: 400.0 mg/kg/injection, schedule: Q01DX Z (ip), vehicle: carboxymethylcellulose (CMC)); 105 % of control (dose: 400.0 mg/kg/injection, schedule: Q01DX Z (ip), vehicle: saline); 116 % of control (dose: 400.0 mg/kg/injection, schedule: Q04DX003 (ip), vehicle: saline). Further, the T/C (dose: 800.0 mg/kg/injection, schedule: Q04DX003 (ip), vehicle: saline) was 116 % of control.
`Cc1ccc(Oc2cccc3c[n+](C)ccc23)cc1`: the T/C (dose: 25.0 mg/kg/injection, schedule: Q04DX002 (ip), vehicle: DMSO) is 93 % of control; the T/C (dose: 50.0 mg/kg/injection, schedule: Q04DX002 (ip), vehicle: DMSO) is 96 % of control; the T/C (dose: 100.0 mg/kg/injection, schedule: Q04DX002 (ip), vehicle: DMSO) is 86 % of control.
Regarding `CCC1CCC(NC(=O)N(CCF)N=O)CC1` (configuration not stated), the T/C is, setting by setting: (dose: 12.0 mg/kg/injection, schedule: Q01DX001 (ip), vehicle: other) 105 % of control; (dose: 18.0 mg/kg/injection, schedule: Q01DX001 (ip), vehicle: other) 114 % of control; (dose: 60.0 mg/kg/injection, schedule: Q01DX001 (ip), vehicle: other) 215 % of control; (dose: 93.0 mg/kg/injection, schedule: Q01DX001 (ip), vehicle: other) 223 % of control.
